# Source: publication PMC9781983, “Identification of Darunavir Derivatives for Inhibition of SARS-CoV-2 3CL^pro” (International Journal of Molecular Sciences, 2022)
# Like-named read-outs stand apart in the source and are kept apart here.
# Key:
# [1] = biological target: T1, SARS-CoV-2 3CL^pro (Severe acute respiratory syndrome coronavirus 2, UniProt P0DTD1); assay: biochemical; type: biochemical; settings: for IC50: FRET dose-response, 100 nM 3CL^pro pre-incubated 30 min at 30 °C, 10 µM substrate, read-out: IC50 against SARS-CoV-2 3CL^pro
# [2] = biological target: Cathepsin L (Homo sapiens, UniProt P07711); assay: Counter screen against Cathepsin L; type: biochemical; settings: dose-response, Figure S1
# Cathepsin L, sequence (P07711 114-333): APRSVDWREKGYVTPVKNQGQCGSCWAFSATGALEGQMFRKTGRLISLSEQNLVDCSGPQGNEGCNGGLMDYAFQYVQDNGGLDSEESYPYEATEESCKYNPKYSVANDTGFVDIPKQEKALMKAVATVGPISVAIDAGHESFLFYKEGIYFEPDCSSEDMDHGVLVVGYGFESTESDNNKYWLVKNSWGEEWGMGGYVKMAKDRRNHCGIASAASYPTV
# [3] = biological target: T1, SARS-CoV-2 3CL^pro; assay: Bio-layer interferometry (BLI) kinetic binding assay; settings: for Binding to SARS-CoV-2 3CL^pro: 6.25 to 100 or 200 µM; for koff: read-out: Kdis
# [4] = biological target: Norovirus RNA-dependent RNA polymerase (RdRp) (Norovirus, UniProt Q83883); assay: BLI binding assay, non-specific binding control; settings: Figure S2
# Norovirus RNA-dependent RNA polymerase (RdRp), sequence (Q83883 1282-1789): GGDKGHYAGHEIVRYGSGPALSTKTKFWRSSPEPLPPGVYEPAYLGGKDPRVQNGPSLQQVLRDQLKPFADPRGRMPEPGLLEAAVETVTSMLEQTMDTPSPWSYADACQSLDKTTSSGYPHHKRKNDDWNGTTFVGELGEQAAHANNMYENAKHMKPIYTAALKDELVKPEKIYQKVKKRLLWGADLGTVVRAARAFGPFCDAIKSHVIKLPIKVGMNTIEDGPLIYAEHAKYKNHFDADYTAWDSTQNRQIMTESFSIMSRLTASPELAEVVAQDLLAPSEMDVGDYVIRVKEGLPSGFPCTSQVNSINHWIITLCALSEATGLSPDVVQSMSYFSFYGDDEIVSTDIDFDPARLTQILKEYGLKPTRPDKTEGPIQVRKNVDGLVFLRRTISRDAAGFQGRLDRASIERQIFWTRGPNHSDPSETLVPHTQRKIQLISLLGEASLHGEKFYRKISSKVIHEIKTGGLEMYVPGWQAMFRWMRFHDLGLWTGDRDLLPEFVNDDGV
# [5] = biological target: T1, SARS-CoV-2 3CL^pro; assay: cell-based
# [6] = in vitro; settings: human
# [7] = system: rats; settings: taken orally, ref [7],[34]; cited from earlier work
# [8] = single concentration of 20 μM, normalized to DMSO control
SMILES,Hill slope ([1]; FRET dose-response curve),IC50 [1] [µM],"Inhibition of 3CL^pro activity in primary screening [1, 8]",Inhibitory effect against Cathepsin L [2],Binding to SARS-CoV-2 3CL^pro ([3]; BLI),Kd ([3]; ForteBio Octet System) [µM],kon ([3]; ForteBio Octet System) [M⁻¹ s⁻¹],koff ([3]; ForteBio Octet System) [s⁻¹],KD with Norovirus RdRp [4],EC50 [5] [µM],CC50 [6] [µM],Kd ([3]; BLI) [µM],Hill slope [1],Inhibition of 3CL^pro activity in primary screening [1],median lethal dose [7] [mg/kg]
COc1ccc(S(=O)(=O)N(CC(C)O)CC(O)C(Cc2ccccc2)NC(=O)c2ccc(O)c(O)c2)cc1 (stereo not drawn) [29#],1.78±0.32,6.3,significant inhibition,very limited inhibitory effect,dose-dependent manner,52.7,374,0.0197,either a large KD value or a not-detected KD value,8.9,24.8,,,,
CC(C)CN(C[C@@H](O)[C@H](Cc1ccccc1)NC(=O)O[C@H]1CO[C@H]2OCC[C@H]21)S(=O)(=O)c1ccc(N)cc1 [Darunavir],,,no inhibitory activity,,,,,,,,,,,,
COc1ccc(S(=O)(=O)N(CC(C)O)CC(O)C(Cc2ccccc2)NC(=O)C2(O)CC(O)C(O)C(OC(=O)C=Cc3ccc(O)c(O)c3)C2)cc1 (stereo not drawn) [50#],1.93±0.30,3.5,significant inhibition,very limited inhibitory effect,dose-dependent manner,62.1,455,0.0282,either a large KD value or a not-detected KD value,13.5,49,62,,,
"O=c1c2ccccc2[se]n1-c1ccccc1 [Ebselen, ebselen, reference compound]",,,,,,,,,,,,,1.91±0.22,strongly inhibit,> 4600
